PubChem BioAssay (NCI)
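Where inhibition never reached the appropriate level, the endpoint shown equals the highest concentration tested. Otherwise, values were interpolated linearly from a five-concentration, 48-hour dose response in 96-well plates. GI50: concentration for 50% inhibition of growth. TGI: concentration producing complete growth inhibition.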

How the values were obtained:
Test in all cases: growth of human tumour cells (NCI), 48 h
CAKI-1 renal = test system: CAKI-1 renal
MALME-3M melanoma = test system: MALME-3M melanoma
MCF7 breast = test system: MCF7 breast
SK-OV-3 ovarian = test system: SK-OV-3 ovarian
COLO 205 colon = test system: COLO 205 colon
K-562 leukemia = test system: K-562 leukemia
CCRF-CEM leukemia = test system: CCRF-CEM leukemia
SK-MEL-2 melanoma = test system: SK-MEL-2 melanoma
HCT-15 colon = test system: HCT-15 colon
LOX IMVI melanoma = test system: LOX IMVI melanoma
M14 melanoma = test system: M14 melanoma
SF-539 CNS = test system: SF-539 CNS
786-0 renal = test system: 786-0 renal
UACC-257 melanoma = test system: UACC-257 melanoma
NCI/ADR-RES ovarian = test system: NCI/ADR-RES ovarian
HOP-62 NSCLC = test system: HOP-62 NSCLC
HCC-2998 colon = test system: HCC-2998 colon
UACC-62 melanoma = test system: UACC-62 melanoma
HCT-116 colon = test system: HCT-116 colon
NCI-H522 lung = test system: NCI-H522 lung
OVCAR-3 ovarian = test system: OVCAR-3 ovarian
SW-620 colon = test system: SW-620 colon
A549 NSCLC = test system: A549 NSCLC
SR leukemia = test system: SR leukemia
RPMI-8226 leukemia = test system: RPMI-8226 leukemia
PC-3 prostate = test system: PC-3 prostate
NCI-H23 lung = test system: NCI-H23 lung
RXF 393 renal = test system: RXF 393 renal
DU-145 prostate = test system: DU-145 prostate
UO-31 renal = test system: UO-31 renal
SN12C renal = test system: SN12C renal
TK-10 renal = test system: TK-10 renal
KM12 colon = test system: KM12 colon
U251 CNS = test system: U251 CNS
IGROV1 ovarian = test system: IGROV1 ovarian
SF-268 CNS = test system: SF-268 CNS
MOLT-4 leukemia = test system: MOLT-4 leukemia
SK-MEL-28 melanoma = test system: SK-MEL-28 melanoma
SK-MEL-5 melanoma = test system: SK-MEL-5 melanoma
MDA-MB-231 breast = test system: MDA-MB-231 breast
OVCAR-8 ovarian = test system: OVCAR-8 ovarian
OVCAR-4 ovarian = test system: OVCAR-4 ovarian
T-47D breast = test system: T-47D breast
HOP-92 NSCLC = test system: HOP-92 NSCLC
NCI-H226 lung = test system: NCI-H226 lung
OVCAR-5 ovarian = test system: OVCAR-5 ovarian
EKVX NSCLC = test system: EKVX NSCLC
ACHN renal = test system: ACHN renal
HL-60(TB) leukemia = test system: HL-60(TB) leukemia
NCI-H460 lung = test system: NCI-H460 lung
SNB-19 CNS = test system: SNB-19 CNS
HT29 colon = test system: HT29 colon
SF-295 CNS = test system: SF-295 CNS
BT-549 breast = test system: BT-549 breast
HS 578T breast = test system: HS 578T breast
SNB-75 CNS = test system: SNB-75 CNS
MDA-MB-435 = test system: MDA-MB-435

Structure (SMILES): C[N+](C)([O-])Cc1cccc(NC(=O)c2ccc(C(=O)Nc3cccc(C[N+](C)(C)[O-])c3)cc2)c1
- TGI (CAKI-1 renal): > 100 µM
- TGI (MALME-3M melanoma): > 100 µM
- TGI (MCF7 breast): > 100 µM
- TGI (SK-OV-3 ovarian): > 100 µM
- TGI (COLO 205 colon): > 100 µM
- TGI (K-562 leukemia): > 100 µM
- TGI (CCRF-CEM leukemia): > 100 µM
- TGI (SK-MEL-2 melanoma): > 100 µM
- TGI (HCT-15 colon): > 100 µM
- TGI (LOX IMVI melanoma): > 100 µM
- TGI (M14 melanoma): > 100 µM
- TGI (SF-539 CNS): > 100 µM
- TGI (786-0 renal): > 100 µM
- TGI (UACC-257 melanoma): > 100 µM
- TGI (NCI/ADR-RES ovarian): > 100 µM
- TGI (HOP-62 NSCLC): > 100 µM
- TGI (HCC-2998 colon): > 100 µM
- TGI (UACC-62 melanoma): > 100 µM
- TGI (HCT-116 colon): > 100 µM
- TGI (NCI-H522 lung): > 100 µM
- TGI (OVCAR-3 ovarian): > 100 µM
- TGI (SW-620 colon): > 100 µM
- TGI (A549 NSCLC): > 100 µM
- TGI (SR leukemia): > 100 µM
- TGI (RPMI-8226 leukemia): > 100 µM
- TGI (PC-3 prostate): > 100 µM
- TGI (NCI-H23 lung): > 100 µM
- TGI (RXF 393 renal): > 100 µM
- TGI (DU-145 prostate): > 100 µM
- TGI (UO-31 renal): > 100 µM
- TGI (SN12C renal): > 100 µM
- TGI (TK-10 renal): > 100 µM
- TGI (KM12 colon): > 100 µM
- TGI (U251 CNS): > 100 µM
- TGI (IGROV1 ovarian): > 100 µM
- TGI (SF-268 CNS): > 100 µM
- TGI (MOLT-4 leukemia): > 100 µM
- TGI (SK-MEL-28 melanoma): > 100 µM
- TGI (SK-MEL-5 melanoma): > 100 µM
- TGI (MDA-MB-231 breast): > 100 µM
- TGI (OVCAR-8 ovarian): > 100 µM
- TGI (OVCAR-4 ovarian): > 100 µM
- TGI (T-47D breast): > 100 µM
- TGI (HOP-92 NSCLC): > 100 µM
- TGI (NCI-H226 lung): > 100 µM
- TGI (OVCAR-5 ovarian): > 100 µM
- TGI (EKVX NSCLC): > 100 µM
- TGI (ACHN renal): > 100 µM
- TGI (HL-60(TB) leukemia): > 100 µM
- TGI (NCI-H460 lung): > 100 µM
- TGI (SNB-19 CNS): > 100 µM
- TGI (HT29 colon): > 100 µM
- TGI (SF-295 CNS): > 100 µM
- TGI (BT-549 breast): > 100 µM

Structure (SMILES): COc1ccc(C2CC(c3ccc(OC)c(OC)c3)=NN2C(=O)c2cc(OC)c(OC)c(OC)c2)cc1 (centres undefined)
- GI50 (CAKI-1 renal): 0.473 µM
- TGI (CAKI-1 renal): > 24.9 µM
- GI50 (MALME-3M melanoma): > 91.3 µM
- TGI (MALME-3M melanoma): > 100 µM
- GI50 (MCF7 breast): 0.647 µM
- TGI (MCF7 breast): > 100 µM
- GI50 (SK-OV-3 ovarian): 1.76 µM
- TGI (SK-OV-3 ovarian): > 100 µM
- GI50 (COLO 205 colon): 2.81 µM
- TGI (COLO 205 colon): > 28 µM
- GI50 (K-562 leukemia): 1.2 µM
- TGI (K-562 leukemia): > 100 µM
- GI50 (CCRF-CEM leukemia): 4.29 µM
- TGI (CCRF-CEM leukemia): > 100 µM
- GI50 (HS 578T breast): 2.07 µM
- TGI (HS 578T breast): > 100 µM
- GI50 (SK-MEL-2 melanoma): 3.87 µM
- TGI (SK-MEL-2 melanoma): > 100 µM
- GI50 (HCT-15 colon): 1.76 µM
- TGI (HCT-15 colon): > 100 µM
- GI50 (LOX IMVI melanoma): 2.47 µM
- TGI (LOX IMVI melanoma): > 100 µM
- GI50 (M14 melanoma): 1.95 µM
- TGI (M14 melanoma): > 100 µM
- GI50 (SF-539 CNS): 1.36 µM
- TGI (SF-539 CNS): > 21.7 µM
- GI50 (786-0 renal): 2.71 µM
- TGI (786-0 renal): > 100 µM
- GI50 (UACC-257 melanoma): > 31.5 µM
- TGI (UACC-257 melanoma): > 100 µM
- GI50 (NCI/ADR-RES ovarian): 0.95 µM
- TGI (NCI/ADR-RES ovarian): 6.02 µM
- GI50 (HOP-62 NSCLC): 1.78 µM
- TGI (HOP-62 NSCLC): > 100 µM
- GI50 (HCC-2998 colon): 1.85 µM
- TGI (HCC-2998 colon): 4.77 µM
- GI50 (UACC-62 melanoma): 1.39 µM
- TGI (UACC-62 melanoma): > 100 µM
- GI50 (HCT-116 colon): 2.23 µM
- TGI (HCT-116 colon): > 100 µM
- GI50 (NCI-H522 lung): 0.56 µM
- GI50 (SW-620 colon): 3.7 µM
- TGI (SW-620 colon): > 100 µM
- GI50 (A549 NSCLC): 2.88 µM
- TGI (A549 NSCLC): > 100 µM
- GI50 (SR leukemia): 2.07 µM
- TGI (SR leukemia): > 100 µM
- GI50 (RPMI-8226 leukemia): 4.27 µM
- TGI (RPMI-8226 leukemia): > 100 µM
- GI50 (PC-3 prostate): 3.57 µM
- TGI (PC-3 prostate): > 100 µM
- GI50 (SNB-75 CNS): 2.08 µM
- TGI (SNB-75 CNS): > 100 µM
- GI50 (NCI-H23 lung): 3.46 µM
- TGI (NCI-H23 lung): > 100 µM
- GI50 (RXF 393 renal): 0.344 µM
- TGI (RXF 393 renal): 3.05 µM
- GI50 (DU-145 prostate): 3.79 µM
- TGI (DU-145 prostate): > 100 µM
- GI50 (UO-31 renal): 0.864 µM
- TGI (UO-31 renal): > 100 µM
- GI50 (SN12C renal): 5.71 µM
- TGI (SN12C renal): > 100 µM
- GI50 (TK-10 renal): 5.26 µM
- TGI (TK-10 renal): > 100 µM
- GI50 (KM12 colon): 2.31 µM
- TGI (KM12 colon): > 63.1 µM
- GI50 (U251 CNS): 2.53 µM
- TGI (U251 CNS): > 100 µM
- GI50 (IGROV1 ovarian): 3.32 µM
- TGI (IGROV1 ovarian): > 100 µM
- GI50 (SF-268 CNS): 5.06 µM
- TGI (SF-268 CNS): > 100 µM
- GI50 (MOLT-4 leukemia): 7.36 µM
- TGI (MOLT-4 leukemia): > 100 µM
- GI50 (MDA-MB-435): 0.409 µM
- TGI (MDA-MB-435): 2.02 µM
- GI50 (SK-MEL-28 melanoma): 68.5 µM
- TGI (SK-MEL-28 melanoma): > 100 µM
- GI50 (SK-MEL-5 melanoma): 0.558 µM
- TGI (SK-MEL-5 melanoma): 4.83 µM
- GI50 (MDA-MB-231 breast): 3.09 µM
- TGI (MDA-MB-231 breast): > 100 µM
- GI50 (OVCAR-8 ovarian): 3.96 µM
- TGI (OVCAR-8 ovarian): > 100 µM
- GI50 (OVCAR-4 ovarian): > 23.8 µM
- TGI (OVCAR-4 ovarian): > 100 µM
- GI50 (T-47D breast): 2.3 µM
- TGI (T-47D breast): > 100 µM
- GI50 (HOP-92 NSCLC): 0.168 µM
- TGI (HOP-92 NSCLC): 0.841 µM
- GI50 (NCI-H226 lung): 3.06 µM
- TGI (NCI-H226 lung): > 100 µM
- GI50 (OVCAR-5 ovarian): 9.26 µM
- TGI (OVCAR-5 ovarian): > 100 µM
- GI50 (EKVX NSCLC): 5.25 µM
- TGI (EKVX NSCLC): > 100 µM
- GI50 (ACHN renal): 2.41 µM
- TGI (ACHN renal): > 100 µM
- GI50 (HL-60(TB) leukemia): 2.4 µM
- TGI (HL-60(TB) leukemia): > 32 µM
- GI50 (NCI-H460 lung): 3.54 µM
- TGI (NCI-H460 lung): > 100 µM
- GI50 (SNB-19 CNS): 4.67 µM
- TGI (SNB-19 CNS): > 100 µM
- GI50 (HT29 colon): 3.07 µM
- TGI (HT29 colon): > 100 µM
- GI50 (SF-295 CNS): 0.426 µM
- GI50 (BT-549 breast): 3.96 µM
- TGI (BT-549 breast): > 46.7 µM
